# Source: ChEMBL document CHEMBL3632507, “Discovery of novel VEGFR-2 inhibitors. Part 5: Exploration of diverse hinge-binding fragments via core-refining approach” (Eur J Med Chem, 2015)
# Legend:
# A549 = test: Antiproliferative activity against human A549 cells assessed as cell growth inhibition after 48 hrs by MTT assay; conditions: A549, 48 h
# [1] = Antiproliferative activity against human SMMC7721 cells assessed as cell growth inhibition after 48 hrs by MTT assay; conditions: SMMC-7721, 48 h
# [2] = target: Vascular endothelial growth factor receptor 2 (Homo sapiens, UniProt P35968); test: Inhibition of VEGFR-2 (unknown origin) after 1 hr by ADP-Glo assay
# Chain of Vascular endothelial growth factor receptor 2 (P35968 whole entry): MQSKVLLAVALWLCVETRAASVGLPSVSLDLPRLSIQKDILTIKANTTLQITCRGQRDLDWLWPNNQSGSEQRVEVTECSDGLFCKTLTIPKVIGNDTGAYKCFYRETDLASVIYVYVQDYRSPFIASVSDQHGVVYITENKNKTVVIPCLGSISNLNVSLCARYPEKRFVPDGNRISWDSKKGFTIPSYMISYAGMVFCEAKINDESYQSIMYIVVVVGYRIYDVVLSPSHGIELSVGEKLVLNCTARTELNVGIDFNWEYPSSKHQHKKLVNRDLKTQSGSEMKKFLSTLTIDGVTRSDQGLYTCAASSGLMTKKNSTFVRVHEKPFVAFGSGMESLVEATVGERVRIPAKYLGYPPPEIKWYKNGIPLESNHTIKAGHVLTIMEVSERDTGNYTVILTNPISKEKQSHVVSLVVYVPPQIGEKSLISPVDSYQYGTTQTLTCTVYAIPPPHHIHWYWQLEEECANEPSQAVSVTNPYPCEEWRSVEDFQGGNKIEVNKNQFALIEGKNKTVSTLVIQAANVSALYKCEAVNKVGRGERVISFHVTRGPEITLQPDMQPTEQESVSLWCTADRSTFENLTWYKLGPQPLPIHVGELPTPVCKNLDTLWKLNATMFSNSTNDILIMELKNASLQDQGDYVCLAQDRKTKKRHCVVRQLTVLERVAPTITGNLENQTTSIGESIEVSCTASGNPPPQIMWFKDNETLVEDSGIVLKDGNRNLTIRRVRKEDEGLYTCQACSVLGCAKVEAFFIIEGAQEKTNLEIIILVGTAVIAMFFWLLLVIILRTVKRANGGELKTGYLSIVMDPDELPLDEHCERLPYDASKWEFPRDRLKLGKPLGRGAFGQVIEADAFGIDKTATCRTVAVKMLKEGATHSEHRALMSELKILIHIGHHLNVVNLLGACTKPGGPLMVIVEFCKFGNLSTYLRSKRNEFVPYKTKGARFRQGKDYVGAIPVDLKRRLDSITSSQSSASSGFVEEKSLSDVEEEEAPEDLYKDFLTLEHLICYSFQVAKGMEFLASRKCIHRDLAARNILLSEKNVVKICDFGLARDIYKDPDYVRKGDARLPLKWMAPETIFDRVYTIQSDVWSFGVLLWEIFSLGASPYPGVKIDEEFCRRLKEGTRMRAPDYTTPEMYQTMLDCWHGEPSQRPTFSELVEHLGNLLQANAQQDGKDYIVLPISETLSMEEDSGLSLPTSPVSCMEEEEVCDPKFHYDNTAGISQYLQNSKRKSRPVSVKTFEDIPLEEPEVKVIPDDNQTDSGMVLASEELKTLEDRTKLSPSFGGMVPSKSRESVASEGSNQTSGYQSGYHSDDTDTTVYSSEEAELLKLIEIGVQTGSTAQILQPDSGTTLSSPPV
IC50 (A549) [µM],IC50 [2] [µM],SMILES,IC50 [1] [µM]
2.49,–,COc1ccc(C(=O)OCCN(C)C)cc1NC(=O)Nc1cc(-c2cccnc2)cc(C(F)(F)F)c1,0.86
1.66,> 500,COc1ccc(C(=O)OCCN(C)C)cc1NC(=O)Nc1cc(-c2cncnc2)cc(C(F)(F)F)c1,1.39
1.01,–,COc1ccc(C(=O)OCCN(C)C)cc1NC(=O)Nc1cc(-c2cccnc2)ccc1OC(F)(F)F,1.38
0.95,–,COc1ccc(C(=O)OCCN(C)C)cc1NC(=O)Nc1cc(-c2ccc3[nH]ccc3c2)ccc1OC(F)(F)F,1.76
0.91,–,COc1ccc(-c2ccc(OC(F)(F)F)c(NC(=O)Nc3cc(C(=O)OCCN(C)C)ccc3OC)c2)cn1,2.01
14.7,–,COc1ccc(C(=O)OCCN(C)C)cc1NC(=O)Nc1cc(-c2cncnc2)ccc1OC(F)(F)F,6.15
0.99,–,CCN(CC)CCOC(=O)c1ccc(OC)c(NC(=O)Nc2cc(-c3ccc4[nH]ccc4c3)ccc2OC(F)(F)F)c1,0.57
1.73,–,CCN(CC)CCOC(=O)c1ccc(OC)c(NC(=O)Nc2cc(-c3ccc(OC)nc3)ccc2OC(F)(F)F)c1,0.64
> 500,> 500,CCN(CC)CCOC(=O)c1ccc(OC)c(NC(=O)Nc2cc(-c3cncnc3)ccc2OC(F)(F)F)c1,3.43
1.91,–,COc1ccc(C(=O)OCCN(C(C)C)C(C)C)cc1NC(=O)Nc1cc(-c2cccnc2)cc(C(F)(F)F)c1,0.73
1.57,> 500,COc1ccc(C(=O)OCCN(C(C)C)C(C)C)cc1NC(=O)Nc1cc(-c2ccc3[nH]ccc3c2)cc(C(F)(F)F)c1,0.41
2.06,> 500,COc1ccc(C(=O)OCCN(C(C)C)C(C)C)cc1NC(=O)Nc1cc(-c2ccc3[nH]ccc3c2)ccc1OC(F)(F)F,0.36
3.97,> 500,COc1ccc(C(=O)OCCN(C(C)C)C(C)C)cc1NC(=O)Nc1cc(-c2cncnc2)ccc1OC(F)(F)F,0.92
1.52,> 500,COc1ccc(C(=O)OCCN(C(C)C)C(C)C)cc1NC(=O)Nc1cc(-c2cn[nH]c2)ccc1OC(F)(F)F,1.23
> 500,> 500,COc1ccc(C(=O)OCCN(C(C)C)C(C)C)cc1NC(=O)Nc1cc(-c2cnn(C)c2)ccc1OC(F)(F)F,> 500
> 500,> 500,COc1ccc(C(=O)OCCN2CCOCC2)cc1NC(=O)Nc1cc(-c2cccnc2)cc(C(F)(F)F)c1,11.1
1.24,> 500,COc1ccc(C(=O)OCCN2CCOCC2)cc1NC(=O)Nc1cc(-c2ccc3[nH]ccc3c2)cc(C(F)(F)F)c1,1.77
1.28,–,COc1ccc(C(=O)OCCN2CCOCC2)cc1NC(=O)Nc1cc(-c2cncnc2)ccc1OC(F)(F)F,10.8
> 500,–,COc1ccc(C(=O)OCCN2CCOCC2)cc1NC(=O)Nc1cc(-c2cn[nH]c2)ccc1OC(F)(F)F,2.55
1.17,–,Nc1n[nH]c2cccc(-c3cccc(NC(=O)Nc4ccccc4F)c3)c12,2.36

IC50 (A549) [µM],IC50 [2] [µM],SMILES,IC50 [1] [µM]
1.36,–,Nc1n[nH]c2cccc(-c3cccc(NC(=O)Nc4cccc(F)c4)c3)c12,1.24
> 500,–,Nc1n[nH]c2cccc(-c3cccc(NC(=O)Nc4ccc(F)cc4)c3)c12,> 500
15.8,–,Nc1n[nH]c2cccc(-c3cccc(NC(=O)Nc4ccccc4Cl)c3)c12,> 500
1.72,–,Nc1n[nH]c2cccc(-c3cccc(NC(=O)Nc4cccc(Cl)c4)c3)c12,1.83
1.66,–,Cc1ccc(NC(=O)Nc2cccc(-c3cccc4[nH]nc(N)c34)c2)cc1,4.45
1.42,–,CC(C)c1cccc(NC(=O)Nc2cccc(-c3cccc4[nH]nc(N)c34)c2)c1,0.28
1.95,–,Nc1n[nH]c2cccc(-c3cccc(NC(=O)Nc4cccc(C(F)(F)F)c4)c3)c12,1.41
2.49,–,COc1cccc(NC(=O)Nc2cccc(-c3cccc4[nH]nc(N)c34)c2)c1,2.86
229,> 0.5,Cc1cccc(C)c1NC(=O)Nc1cccc(-c2cccc3[nH]nc(N)c23)c1,> 500
3.04,> 0.5,Nc1n[nH]c2cccc(-c3cccc(NC(=O)Nc4ccc(F)c(F)c4)c3)c12,5.88
> 500,–,Nc1n[nH]c2cccc(-c3cccc(NC(=O)Nc4ccc(Cl)cc4Cl)c3)c12,1.9
1.51,–,Nc1n[nH]c2cccc(-c3cccc(NC(=O)Nc4cc(C(F)(F)F)cc(C(F)(F)F)c4)c3)c12,3.54
1.75,–,Cc1ccc(NC(=O)Nc2cccc(-c3cccc4[nH]nc(N)c34)c2)cc1Cl,0.51
3.41,–,Nc1n[nH]c2cccc(-c3cccc(NC(=O)Nc4ccc(Cl)c(C(F)(F)F)c4)c3)c12,1.15
> 500,> 0.5,Nc1n[nH]c2cccc(-c3cccc(NC(=O)Nc4nccs4)c3)c12,0.55
5.23,–,Nc1n[nH]c2cccc(-c3ccc(NC(=O)Nc4ccc5c(c4)OCO5)cc3)c12,0.53
1.16,> 0.5,Cc1ccnc(NC(=O)Nc2ccc(-c3cccc4[nH]nc(N)c34)cc2)c1,0.43
> 500,–,CN(C)CCOc1ccc(NC(=O)Nc2ccc(-c3cccc4[nH]nc(N)c34)cc2)cc1F,0.6
1.45,–,CNC(=O)c1cc(Oc2ccc(NC(=O)Nc3ccc(Cl)c(C(F)(F)F)c3)cc2)ccn1 [SORAFENIB],0.65
